No end group written: not given here.
Molecular target: T1, Vps4p^∆N (lacks the MIT domain and linker; residues 101–437) (Saccharomyces cerevisiae, UniProt P52917)
T1 sequence (P52917 101-437): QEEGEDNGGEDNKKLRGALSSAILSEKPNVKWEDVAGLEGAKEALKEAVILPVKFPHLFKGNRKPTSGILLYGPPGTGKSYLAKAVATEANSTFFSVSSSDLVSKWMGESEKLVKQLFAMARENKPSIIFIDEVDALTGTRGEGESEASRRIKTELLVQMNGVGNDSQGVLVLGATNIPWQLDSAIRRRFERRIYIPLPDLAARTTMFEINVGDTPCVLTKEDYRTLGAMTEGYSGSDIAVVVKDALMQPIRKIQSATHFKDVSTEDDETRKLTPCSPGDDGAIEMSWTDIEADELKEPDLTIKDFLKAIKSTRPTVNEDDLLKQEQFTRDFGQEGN
T1 sequence (Q06263 280-330 partner limits assumed): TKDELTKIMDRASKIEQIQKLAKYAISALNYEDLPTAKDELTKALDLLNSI
Test: Fluorescence polarization peptide binding assay to Vps4p^∆N
Parameters: species or system S. cerevisiae
Conditions: ratio of affinities

EKEKEKEK-NH2 [(EK)4]
Fold tighter binding than (KE)4: 6 fold

Reference: PMC12254338 (Scientific Reports, 2025)
